Results on two compounds are retold here after US10179770B2, “Quinolines derivatives as novel anticancer agents” (GENOSCIENCE PHARMA, priority 2013, dated 2019).

Assay [1] concerns MOLM-14 cell line. Kind of assay: Combination of XXIV-3 and Cytarabine, Bliss independence model. To be noted: XXIV-3 associated with Cytarabine, 72 h. It is filed as cell-based, human. Here is the method:
The human leukemia cell line MOLM-14 was cultured in Minimum Essential Medium Alpha Medium (MEM) supplemented with 10% Fetal Bovine Serum (FBS) and 1% Penicillin-Streptomycin and maintained at 37° C. with 5% CO2. 30,000 cells in 180 μL of MEM 5% FBS 1% P/S were plated onto 96-well plates immediately before the assay. Compounds were added at different concentrations (combinations of five concentrations of XXIV-3 and six concentrations of Cytarabine) to each well, and cell cultures were incubated for 72 h. Vehicle (H2O) was used as a control, and all compounds were tested in a constant percentage of vehicle. Cell outgrowth was measured using the CellTiter-Glo luminescent cell viability assay as described by the manufacturer (Promega, Ref G7571 Madison, Wis., USA) using an Infinite F200 Pro TECAN plate reader. […]
The effects of drug-drug combinations are evaluated in the Bliss independence model (Prichard M. N. and Shipman C. Jr. Antivir. Res. 1990 (14) 181-205; Prichard, M. L. et al. Antimicrob Agents Chemother 1993(37) 540-545). The theoretical additive effect is calculated from the dose-response curves of individual compounds by the equation: Z=X+Y(1−X) (7) Where: • Z represents the total inhibition produced by the combination of drugs X and Y. • X and Y represent the inhibition produced by drugs X and Y alone, respectively. […]

Assay [2] deals with U87-MG. Kind of assay: CellTiter 96 Aqueous One Solution (MTS) cell proliferation assay. It is filed as cell-based. To be noted: Homo sapiens, U-87 MG; U87-MG (Glioma); Cell Titer 96 Aqueous One Solution; 72 h; mean of seven independent triplicate assays. Here is the method:
The human glioblastoma cell line U87-MG was cultured in Minimum Essential Medium (Life Invitrogen, 31095029) supplemented with 10% fetal bovine serum (GIBCO, 10500-056) and 1 % penicillin-streptomycin (GIBCO, 15140-122). Flasks and plated used for the cell culture were coated with 25 μg/mL poly-D-lysine (Sigma, P7280).
Cell outgrowth was measured using a tetrazolium compound (3-[4,5-dimethylthiazol-2-yl]-5-[3-carboxymethoxyphenyl]-2-[4-sulfophenyl]-2H tetrazolium, inner salt [MTS]) from the CellTiter 96® Aqueous One Solution Cell Proliferation Assay (Promega, Ref G3580) and according to the manufacturer procedure.
5000 cells were plated onto 96-well plates in 100 μL of media per well and were allowed to grow overnight before the assay. Compounds were added at different concentrations to each well, and cell cultures were incubated for 72 h. Control compound was the diluent used for compound resuspension (H2O). After addition of 20 μL of CellTiter 96® Aqueous One Solution, absorbance at 492 nm was measured using a microplate reader Sunrise (Tecan). EC50 values were determined as the dose of compound required to reduce […] values to 50% of the signal obtained for untreated cell cultures. […] The experimental data are analyzed using a computer program, Graphpad Prism (GraphPad Software, Inc. La Jolla, Calif.).

Assay [3] deals with Capan-1. As to the kind of experiment: Cell viability assay, pancreatic cancer cell lines. It is filed as cell-based. To be noted: Homo sapiens; Capan-1 (Pancreas); 48 h. Here is the method: (§1) MiaPaCa-2, Panc-1 cells were grown in Dulbecco's modified eagle's medium (DMEM) (Gibco) supplemented with 10% fetal bovine serum (FBS), while BxPC-3, Capan-1, Capan-2 cells were grown in Roswell Park Memorial Institute 1640 (RPMI 1640) (Gibco) supplemented with 10% FBS. Gemcitabine (Gemzar) was purchased from Lilly France S.A.S (Suresnes, France). (3-(4,5-dimethylthiazol-2-yl)-2,5diphenyltetrazolium bromide, MTT) was purchased from Sigma-Aldrich.
(§2) BxPC-3, MiaPaCa-2, Panc-1 cells were seeded into a 96-well plate at 10,000 10,000 15,000 cells per well respectively, while Capan-1 and Capan-2 cells at 20,000 cells per well and allowed to adhere overnight. Then the culture medium was removed and replaced with fresh media alone as control or containing various concentrations of different compounds. In dose-dependent assay, the cells were treated with compound XIX-3 at the concentration varying from 0.1 μM to 100 μM while the cells being cultured by fresh media alone were used as control. After 48 h treatment, the number of remained viable cells was determined by (3-(4,5-dimethylthiazol-2-yl)-2,5diphenyltetrazolium bromide, MTT) colorimetric assay (see Sigma Aldrich protocol and Riss T. L. et al. Cell Viability Assays in Assay Guidance Manual 2013 ppl.). All experiments were done in duplicate and repeated two independent times.

For assay [4], the system named is BxPC-3. Kind of assay: Cell viability assay, pancreatic cancer cell lines. Format: cell-based. To be noted: Homo sapiens; BxPC-3 (Pancreas); 48 h. Here is the method:
as §1, §2

The test system of assay [5] is MIA PaCa-2. Kind of assay: Cell viability assay, pancreatic cancer cell lines. The note with it: Homo sapiens; MIA PaCa-2 (Pancreas); 48 h. It is filed as cell-based. Here is the method: as §1, §2
Assay [6] concerns Capan-2. As to the kind of experiment: Cell viability assay, pancreatic cancer cell lines. It is filed as cell-based. To be noted: Homo sapiens; Capan-2 (Pancreas); 48 h. Here is the method:
as §1, §2

Assay [7] has as its system Panc-1. Kind of assay: Cell viability assay, pancreatic cancer cell lines. To be noted: Homo sapiens; Panc-1 (Pancreas); 48 h. It is filed as cell-based. Here is the method:
as §1, §2

Turning to `CCN(CC)C1CCN(C(C)c2cc(-c3ccc4ccccc4c3)nc3ccccc23)CC1.Cl.Cl` (stereo not shown) [XXIV-3, 2-(2-naphtyl)-4-{1-[4-(N,N-diethylamino)-piperidin-1-yl]-eth-1-yl}quinoline dihydrochloride], the “Combination effect on cell viability (Bliss independence model)” value in assay [1] was “additive effect (between −20% to +20% indicates additive effect)”.
Turning to `CCN(CC)C1CCN(C(C)c2cc(-c3ccccc3)nc3ccccc23)CC1.Cl.Cl` (stereo not shown) [XIX-3, 2-phenyl-4-{1-[4-(N,N-diethylamino)piperidin-1-yl]-eth-1-yl}quinoline dihydrochloride], the EC50 worked out at 26 µM in assay [2]; 27 µM in assay [3]; 33 µM in assay [4]; 34 µM in assay [5]; 32 µM in assay [6]; 34 µM in assay [7].

As a reminder, the EC50 is the concentration needed to bring the measured effect to its halfway point. A lower EC50 goes with a more potent agent.
